Each structure is given as a SMILES string.

The test system of the first data set is Musca domestica.
Test: not given
The settings on record: 500 ppm by weight; knockdown assessed 15 minutes after treatment.
Regarding `CCCc1nc2ccc(CC(=O)Nc3snc(C)c3Cl)cc2o1` [4(A23)], the “MUSCDO AC = Musca domestica (knockdown), score” value (from here on “MUSCDO AC = Musca domestica”) was 0 (0 indicates less than 40% mortality).

On to `Cc1nsc(NC(=O)Cc2ccc3oc(C4CCCCC4)nc3c2)c1Cl` [35(A3)], for which the “MUSCDO AC = Musca domestica” value is 0 (0 indicates less than 40% mortality).

As for `Cc1nsc(NC(=O)Cc2ccc3oc(-c4ccncc4)nc3c2)c1Cl` [339(A3)], the “MUSCDO AC = Musca domestica” value was 0 (0 indicates less than 40% mortality).

With `Cc1nsc(NC(=O)Cc2ccc3oc(O)nc3c2)c1Cl` [351(A3)], the “MUSCDO AC = Musca domestica” value was 0 (0 indicates less than 40% mortality).

The subject of a further data set is Phytophthora infestans lycopersici.
Test: not given
The class given is in vivo. The settings on record: METHOD 2 (unbanded).
In the case of `Cc1nsc(NC(=O)Cc2ccc3oc(C(C)Cl)nc3c2)c1Cl` (racemic) [93(A3)], the “PHYTIN 1 d Prot/Foir PRCO” value came out at 49.

For `CCCc1nc2ccc(CC(=O)Nc3snc(C)c3Cl)cc2o1` [4(A23)], the “PHYTIN 1 d Prot/Foir PRCO” value is 100.

Turning to `CCCc1nc2ccc(CC(=O)Nc3snc(C)c3Cl)cc2[nH]1` [4(A43)], the “PHYTIN 1 d Prot/Foir PRCO” value is reported as 0.

For the molecule `CCCC(C)c1nc2cc(CC(=O)Nc3snc(C)c3Cl)ccc2o1` (centres unmarked) [12(A3)], the “PHYTIN 1 d Prot/Foir PRCO” value is 100.

Turning to `Cc1nsc(NC(=O)Cc2ccc3nc(CC(C)(C)C)[nH]c3c2)c1Cl` [15(A43)], the “PHYTIN 1 d Prot/Foir PRCO” value came to 80.

Regarding `Cc1nsc(NC(=O)Cc2ccc3oc(C4CCCCC4)nc3c2)c1Cl` [35(A3)], the “PHYTIN 1 d Prot/Foir PRCO” value is recorded as 84.

Take `Cc1nsc(NC(=O)Cc2ccc3oc(C4(C)CCCCC4)nc3c2)c1Cl` [36(A3)]: the “PHYTIN 1 d Prot/Foir PRCO” value is given as 100.

For `Cc1nsc(NC(=O)Cc2ccc3oc(CC4CCCC4)nc3c2)c1Cl` [42(A3)], the “PHYTIN 1 d Prot/Foir PRCO” value is on record as 100.

For `Cc1nsc(NC(=O)Cc2ccc3oc(C=Cc4ccc([N+](=O)[O-])cc4)nc3c2)c1Cl` [63(A3)], the “PHYTIN 1 d Prot/Foir PRCO” value was determined as 66.

For `Cc1nsc(NC(=O)Cc2ccc3oc(-c4ccncc4)nc3c2)c1Cl` [339(A3)], the “PHYTIN 1 d Prot/Foir PRCO” value amounted to 0.

For a further data set, the system named is Meloidogyne incognita. Description: Nematode test, J2 infective juveniles of Meloidogyne incognita, mortality. As to conditions: 12.5 ppm; J2 infective juveniles suspended in solution; mortality after three days.
With `Cc1nsc(NC(=O)Cc2ccc3oc(C(C)Cl)nc3c2)c1Cl` (racemic) [93(A3)], the “MELGIN = Meloidogyne incognita, grading of mortality (score)” value (from here on “MELGIN = Meloidogyne incognita, grading”) is 0 (0 indicates less than 40% mortality).

On to `CCCc1nc2ccc(CC(=O)Nc3snc(C)c3Cl)cc2o1` [4(A23)], for which the “MELGIN = Meloidogyne incognita, grading” value is reported as 0 (0 indicates less than 40% mortality).

For `CCCC(C)c1nc2cc(CC(=O)Nc3snc(C)c3Cl)ccc2o1` (centres unmarked) [12(A3)], the “MELGIN = Meloidogyne incognita, grading” value was 9 (9 indicates 80-100% mortality).

As to `Cc1nsc(NC(=O)Cc2ccc3oc(C4CCCCC4)nc3c2)c1Cl` [35(A3)], the “MELGIN = Meloidogyne incognita, grading” value is 0 (0 indicates less than 40% mortality).

For the molecule `Cc1nsc(NC(=O)Cc2ccc3oc(C4(C)CCCCC4)nc3c2)c1Cl` [36(A3)], the “MELGIN = Meloidogyne incognita, grading” value is given as 0 (0 indicates less than 40% mortality).

As to `Cc1nsc(NC(=O)Cc2ccc3oc(CC4CCCC4)nc3c2)c1Cl` [42(A3)], the “MELGIN = Meloidogyne incognita, grading” value is on record as 0 (0 indicates less than 40% mortality).

On to `Cc1nsc(NC(=O)Cc2ccc3oc(-c4ccncc4)nc3c2)c1Cl` [339(A3)], for which the “MELGIN = Meloidogyne incognita, grading” value is 0 (0 indicates less than 40% mortality).

Turning to `Cc1nsc(NC(=O)Cc2ccc3oc(O)nc3c2)c1Cl` [351(A3)], the “MELGIN = Meloidogyne incognita, grading” value is 0 (0 indicates less than 40% mortality).

A further data set has as its system Puccinia recondita. Put plainly: Fungicidal test, Puccinia recondita (PUCCRT) on wheat, PRCO. The format is in vivo. The settings on record: METHOD 2 (unbanded).
`Cc1nsc(NC(=O)Cc2ccc3oc(C(C)Cl)nc3c2)c1Cl` (racemic) [93(A3)]: the “PUCCRT 1 d Prot/Foir PRCO” value was found to be 38.

As for `CCCc1nc2ccc(CC(=O)Nc3snc(C)c3Cl)cc2o1` [4(A23)], the “PUCCRT 1 d Prot/Foir PRCO” value is on record as 100.

On to `CCCc1nc2ccc(CC(=O)Nc3snc(C)c3Cl)cc2[nH]1` [4(A43)], for which the “PUCCRT 1 d Prot/Foir PRCO” value is 31.

For `CCCC(C)c1nc2cc(CC(=O)Nc3snc(C)c3Cl)ccc2o1` (centres unmarked) [12(A3)], the “PUCCRT 1 d Prot/Foir PRCO” value is recorded as 100.

Take `Cc1nsc(NC(=O)Cc2ccc3oc(C4CCCCC4)nc3c2)c1Cl` [35(A3)]: the “PUCCRT 1 d Prot/Foir PRCO” value is on record as 100.

In the case of `Cc1nsc(NC(=O)Cc2ccc3oc(C4(C)CCCCC4)nc3c2)c1Cl` [36(A3)], the “PUCCRT 1 d Prot/Foir PRCO” value is 91.

As for `Cc1nsc(NC(=O)Cc2ccc3oc(CC4CCCC4)nc3c2)c1Cl` [42(A3)], the “PUCCRT 1 d Prot/Foir PRCO” value turned out to be 99.

In the case of `Cc1nsc(NC(=O)Cc2ccc3oc(C=Cc4ccc([N+](=O)[O-])cc4)nc3c2)c1Cl` [63(A3)], the “PUCCRT 1 d Prot/Foir PRCO” value is listed as 69.

`Cc1nsc(NC(=O)Cc2ccc3oc(-c4ccncc4)nc3c2)c1Cl` [339(A3)]: the “PUCCRT 1 d Prot/Foir PRCO” value is 31.

The next data set deals with Pyricularia oryzae.
Test: not given
The class given is in vivo. The settings on record: METHOD 2 (unbanded).
`CCCc1nc2ccc(CC(=O)Nc3snc(C)c3Cl)cc2[nH]1` [4(A43)]: the “PYRIOR 1 d Prot/Foir PRCO” value stood at 38.

In the case of `Cc1nsc(NC(=O)Cc2ccc3nc(CC(C)(C)C)[nH]c3c2)c1Cl` [15(A43)], the “PYRIOR 1 d Prot/Foir PRCO” value turned out to be 63.

The next data set concerns Uncinula necator. Put plainly: Fungicidal test, Uncinula necator (UNCINE) on vines, PRCO. The class given is in vivo. As to conditions: METHOD 2 (unbanded).
With `Cc1nsc(NC(=O)Cc2ccc3oc(C(C)Cl)nc3c2)c1Cl` (racemic) [93(A3)], the “UNCINE 1 d Prot/Foir PRCO” value was determined as 10.

For the molecule `CCCc1nc2ccc(CC(=O)Nc3snc(C)c3Cl)cc2[nH]1` [4(A43)], the “UNCINE 1 d Prot/Foir PRCO” value was determined as 35.

On to `CCCC(C)c1nc2cc(CC(=O)Nc3snc(C)c3Cl)ccc2o1` (centres unmarked) [12(A3)], for which the “UNCINE 1 d Prot/Foir PRCO” value worked out at 100.

With `Cc1nsc(NC(=O)Cc2ccc3nc(CC(C)(C)C)[nH]c3c2)c1Cl` [15(A43)], the “UNCINE 1 d Prot/Foir PRCO” value is 63.

As to `Cc1nsc(NC(=O)Cc2ccc3oc(C4(C)CCCCC4)nc3c2)c1Cl` [36(A3)], the “UNCINE 1 d Prot/Foir PRCO” value is recorded as 99.

Regarding `Cc1nsc(NC(=O)Cc2ccc3oc(CC4CCCC4)nc3c2)c1Cl` [42(A3)], the “UNCINE 1 d Prot/Foir PRCO” value was 100.

As to `Cc1nsc(NC(=O)Cc2ccc3oc(C=Cc4ccc([N+](=O)[O-])cc4)nc3c2)c1Cl` [63(A3)], the “UNCINE 1 d Prot/Foir PRCO” value worked out at 14.

With `Cc1nsc(NC(=O)Cc2ccc3oc(O)nc3c2)c1Cl` [351(A3)], the “UNCINE 1 d Prot/Foir PRCO” value is on record as 11.

The next data set deals with Venturia inaequalis. Description: Fungicidal test, Venturia inaequalis (VENTIN) on apples, PRCO. The format is in vivo. The settings on record: METHOD 2 (unbanded).
Consider `Cc1nsc(NC(=O)Cc2ccc3oc(C(C)Cl)nc3c2)c1Cl` (racemic) [93(A3)], for which the “VENTIN 1 d Prot/Foir PRCO” value was determined as 6.

As for `CCCC(C)c1nc2cc(CC(=O)Nc3snc(C)c3Cl)ccc2o1` (centres unmarked) [12(A3)], the “VENTIN 1 d Prot/Foir PRCO” value turned out to be 63.

As to `Cc1nsc(NC(=O)Cc2ccc3oc(C4(C)CCCCC4)nc3c2)c1Cl` [36(A3)], the “VENTIN 1 d Prot/Foir PRCO” value is listed as 44.

On to `Cc1nsc(NC(=O)Cc2ccc3oc(CC4CCCC4)nc3c2)c1Cl` [42(A3)], for which the “VENTIN 1 d Prot/Foir PRCO” value was 74.

Consider `Cc1nsc(NC(=O)Cc2ccc3oc(C=Cc4ccc([N+](=O)[O-])cc4)nc3c2)c1Cl` [63(A3)], for which the “VENTIN 1 d Prot/Foir PRCO” value amounted to 13.

Another data set deals with Erysiphe graminis f.sp. tritici. Description: Fungicidal test, Erysiphe graminis f.sp. tritici (ERYSGT) on wheat, PRCO. The class given is in vivo. The settings on record: 6 hr Prot/Foir; METHOD 2 (unbanded).
As for `Cc1nsc(NC(=O)Cc2ccc3oc(CC4CCCC4)nc3c2)c1Cl` [42(A3)], the “ERYSGT 6 hr Prot/Foir PRCO” value was determined as 92.

Staying with this data set, now noted: 1 d Prot/Foir; METHOD 2 (unbanded).
As to `Cc1nsc(NC(=O)Cc2ccc3oc(C(C)Cl)nc3c2)c1Cl` (racemic) [93(A3)], the “ERYSGT 1 d Prot/Foir PRCO” value is on record as 32.

As for `CCCc1nc2ccc(CC(=O)Nc3snc(C)c3Cl)cc2o1` [4(A23)], the “ERYSGT 1 d Prot/Foir PRCO” value is 59.

Take `CCCC(C)c1nc2cc(CC(=O)Nc3snc(C)c3Cl)ccc2o1` (centres unmarked) [12(A3)]: the “ERYSGT 1 d Prot/Foir PRCO” value stood at 95.

As for `Cc1nsc(NC(=O)Cc2ccc3oc(C4CCCCC4)nc3c2)c1Cl` [35(A3)], the “ERYSGT 1 d Prot/Foir PRCO” value was found to be 93.

`Cc1nsc(NC(=O)Cc2ccc3oc(C4(C)CCCCC4)nc3c2)c1Cl` [36(A3)]: the “ERYSGT 1 d Prot/Foir PRCO” value was 72.

Take `Cc1nsc(NC(=O)Cc2ccc3oc(CC4CCCC4)nc3c2)c1Cl` [42(A3)]: the “ERYSGT 1 d Prot/Foir PRCO” value is listed as 92.

For the molecule `Cc1nsc(NC(=O)Cc2ccc3oc(C=Cc4ccc([N+](=O)[O-])cc4)nc3c2)c1Cl` [63(A3)], the “ERYSGT 1 d Prot/Foir PRCO” value was determined as 40.

For the molecule `Cc1nsc(NC(=O)Cc2ccc3oc(-c4ccncc4)nc3c2)c1Cl` [339(A3)], the “ERYSGT 1 d Prot/Foir PRCO” value is recorded as −7.

Another data set deals with Septoria nodorum. Description: Fungicidal test, Septoria nodorum (LEPTNO) on wheat, PRCO. The format is in vivo. As to conditions: METHOD 2 (unbanded).
In the case of `Cc1nsc(NC(=O)Cc2ccc3oc(C(C)Cl)nc3c2)c1Cl` (racemic) [93(A3)], the “LEPTNO 1 d Prot/Foir PRCO” value is on record as 24.

On to `CCCc1nc2ccc(CC(=O)Nc3snc(C)c3Cl)cc2o1` [4(A23)], for which the “LEPTNO 1 d Prot/Foir PRCO” value was determined as 63.

With `CCCc1nc2ccc(CC(=O)Nc3snc(C)c3Cl)cc2[nH]1` [4(A43)], the “LEPTNO 1 d Prot/Foir PRCO” value is 0.

`CCCC(C)c1nc2cc(CC(=O)Nc3snc(C)c3Cl)ccc2o1` (centres unmarked) [12(A3)]: the “LEPTNO 1 d Prot/Foir PRCO” value is recorded as 17.

On to `Cc1nsc(NC(=O)Cc2ccc3nc(CC(C)(C)C)[nH]c3c2)c1Cl` [15(A43)], for which the “LEPTNO 1 d Prot/Foir PRCO” value was found to be 0.

On to `Cc1nsc(NC(=O)Cc2ccc3oc(C4CCCCC4)nc3c2)c1Cl` [35(A3)], for which the “LEPTNO 1 d Prot/Foir PRCO” value is reported as −15.

Take `Cc1nsc(NC(=O)Cc2ccc3oc(C4(C)CCCCC4)nc3c2)c1Cl` [36(A3)]: the “LEPTNO 1 d Prot/Foir PRCO” value turned out to be 2.

With `Cc1nsc(NC(=O)Cc2ccc3oc(CC4CCCC4)nc3c2)c1Cl` [42(A3)], the “LEPTNO 1 d Prot/Foir PRCO” value was determined as 11.

Consider `Cc1nsc(NC(=O)Cc2ccc3oc(C=Cc4ccc([N+](=O)[O-])cc4)nc3c2)c1Cl` [63(A3)], for which the “LEPTNO 1 d Prot/Foir PRCO” value is listed as 2.

Turning to `Cc1nsc(NC(=O)Cc2ccc3oc(-c4ccncc4)nc3c2)c1Cl` [339(A3)], the “LEPTNO 1 d Prot/Foir PRCO” value is reported as 0.

The record behind these values is patent US6544989B2, “Benzazoles: benzoxazole, benzthiazole and benzimidazole derivatives” (Syngenta Limited, priority 1998, dated 2003).
